Legend:
[1] = tested on: bicistronic HCV replicon (replicon RNA, GenBank Accession No. AJ242654); assay: HCV Replicon Assay; type: cell-based; details: Hepatitis C virus, 72 h, read-out: Replicon IC50

SMILES | IC50 [1] [nM] | melting point
C[C@@H](NS(=O)(=O)c1ccc(-c2c(C#N)c3cc(F)ccc3n2C2C=CCCC2)nc1)C(F)(F)F (stereo partly drawn) [compound 412, 6-[3-cyano-1-(cyclohex-2-en-1-yl)-5-fluoro-1H-indol-2-yl]-N-[(2R)-1,1,1-trifluoropropan-2-yl]pyridine-3-sulfonamide] | < 500 | 187 to 188 °C
N#Cc1c(-c2ncc(S(=O)(=O)NC(CF)CF)cn2)n(C2CCC2)c2cc(OC(F)F)c(Cl)cc12 [compound 659, 2-[5-chloro-3-cyano-1-cyclobutyl-6-(difluoromethoxy)-1H-indol-2-yl]-N-(1,3-difluoropropan-2-yl)pyrimidine-5-sulfonamide] | < 500 | 228 to 232 °C
C[C@H](NS(=O)(=O)c1cnc(-c2c(C#N)c3ccc(C4CC4)cc3n2C2CCC2)nc1)C(F)(F)F [compound 324, 2-(3-cyano-1-cyclobutyl-6-cyclopropyl-1H-indol-2-yl)-N-[(2S)-1,1,1-trifluoropropan-2-yl]pyrimidine-5-sulfonamide] | < 500 | 214 to 215 °C
N#Cc1c(-c2ncc(S(=O)(=O)NC(CF)CF)cn2)n(C2CCCC2)c2cc(CC(F)F)ccc12 [compound 599, 2-[3-cyano-1-cyclopentyl-6-(2,2-difluoroethyl)-1H-indol-2-yl]-N-(1,3-difluoropropan-2-yl)pyrimidine-5-sulfonamide] | < 500 | 174 to 210 °C
CCc1cc2c(cc1F)c(C#N)c(-c1ccc(S(=O)(=O)NC(C)(C)C)cn1)n2C1CCC1 [compound 764, N-tert-butyl-6-(3-cyano-1-cyclobutyl-6-ethyl-5-fluoro-1H-indol-2-yl)pyridine-3-sulfonamide] | < 500 | 186 to 188 °C
Cc1cc2c(cc1Br)c(C#N)c(-c1ccc(S(=O)(=O)N[C@H](C)C(F)(F)F)cn1)n2C1CCCC1 [compound 692, 6-(5-bromo-3-cyano-1-cyclopentyl-6-methyl-1H-indol-2-yl)-N-[(2R)-1,1,1-trifluoropropan-2-yl]pyridine-3-sulfonamide] | < 500 | 226.5 to 227 °C
CCc1cc2c(cc1F)c(C#N)c(-c1ccc(S(=O)(=O)N[C@@H](C)C(F)(F)F)cn1)n2-c1ccc(Cl)cn1 [compound 966, 6-[1-(5-chloropyridin-2-yl)-3-cyano-6-ethyl-5-fluoro-1H-indol-2-yl]-N-[(2S)-1,1,1-trifluoropropan-2-yl]pyridine-3-sulfonamide] | < 500 | 252 to 259 °C
CC(C)(NS(=O)(=O)c1ccc(-c2c(C#N)c3ccc(OC(F)F)cc3n2-c2ncccn2)nc1)C(F)(F)F [compound 663, 6-[3-cyano-6-(difluoromethoxy)-1-(pyrimidin-2-yl)-1H-indol-2-yl]-N-(1,1,1-trifluoro-2-methylpropan-2-yl)pyridine-3-sulfonamide] | 500 to 2000 | 179 to 180 °C
N#Cc1c(-c2ccc(S(=O)(=O)NC(CF)CF)cn2)n(-c2ccccn2)c2ccc(F)cc12 [compound 96, 6-[3-cyano-5-fluoro-1-(pyridin-2-yl)-1H-indol-2-yl]-N-(1,3-difluoropropan-2-yl)pyridine-3-sulfonamide] | < 500 | 170 to 172 °C
Cc1ccc2c(C#N)c(-c3ccc(S(=O)(=O)N[C@H](C)C(F)(F)F)cn3)n(C(C)C)c2c1 [compound 210, 6-[3-cyano-6-methyl-1-(propan-2-yl)-1H-indol-2-yl]-N-[(2R)-1,1,1-trifluoropropan-2-yl]pyridine-3-sulfonamide] | < 500 | 211 to 216 °C
CCc1cc2c(cc1F)c(C#N)c(-c1ccc(S(=O)(=O)N[C@@H](C)C(F)(F)F)cn1)n2-c1cc(Cl)ccn1 [compound 993, 6-[1-(4-chloropyridin-2-yl)-3-cyano-6-ethyl-5-fluoro-1H-indol-2-yl]-N-[(2S)-1,1,1-trifluoropropan-2-yl]pyridine-3-sulfonamide] | < 500 | 185 to 190 °C
CCc1cc2c(cc1F)c(C(N)=O)c(-c1ccc(S(=O)(=O)N[C@@H](C)C(F)(F)F)cn1)n2-c1ncccn1 [compound 849, 6-ethyl-5-fluoro-1-(pyrimidin-2-yl)-2-(5-{[(2S)-1,1,1-trifluoropropan-2-yl]sulfamoyl}pyridin-2-yl)-1H-indole-3-carboxamide] | < 500 | 235 to 236 °C
Cc1cc2c(cc1F)c(C#N)c(-c1ccc(S(=O)(=O)N[C@@H](C)C(F)(F)F)cn1)n2-c1cnn(C)c1 [compound 1016, 6-[3-cyano-5-fluoro-6-methyl-1-(1-methyl-1H-pyrazol-4-yl)-1H-indol-2-yl]-N-[(2S)-1,1,1-trifluoropropan-2-yl]pyridine-3-sulfonamide] | < 500 | 233.7 to 239.3 °C
Cc1cnc(-n2c(-c3ccc(S(=O)(=O)N[C@@H](C)C(F)(F)F)cn3)c(C#N)c3cc(F)c(C)cc32)s1 [compound 1017, 6-[3-cyano-5-fluoro-6-methyl-1-(5-methyl-1,3-thiazol-2-yl)-1H-indol-2-yl]-N-[(2S)-1,1,1-trifluoropropan-2-yl]pyridine-3-sulfonamide] | < 500 | 223.1 to 228.1 °C
COc1ccc2c(c1)c(C#N)c(-c1ccc(S(=O)(=O)N[C@H](C)C(F)(F)F)cn1)n2C1CCC1 [compound 500, 6-(3-cyano-1-cyclobutyl-5-methoxy-1H-indol-2-yl)-N-[(2R)-1,1,1-trifluoropropan-2-yl]pyridine-3-sulfonamide] | < 500 | 181 to 186 °C
C[C@H](NS(=O)(=O)c1ccc(-c2c(C#N)c3ccc(C#N)cc3n2CC2CC2)nc1)C1CC1 [compound 350, N-[(1S)-1-cyclopropylethyl]-6-[3,6-dicyano-1-(cyclopropylmethyl)-1H-indol-2-yl]pyridine-3-sulfonamide] | 500 to 2000 | 203 to 208 °C
N#Cc1c(-c2ccc(S(=O)(=O)NC(CF)CF)cn2)n(C2CCC2)c2cc(OC(F)F)c(F)cc12 [compound 542, 6-[3-cyano-1-cyclobutyl-6-(difluoromethoxy)-5-fluoro-1H-indol-2-yl]-N-(1,3-difluoropropan-2-yl)pyridine-3-sulfonamide] | < 500 | 160 to 164 °C
Cc1ccc2c(C#N)c(-c3ncc(S(=O)(=O)N[C@@H](C)C4CC4)cn3)n(C3CCCC3)c2c1 [compound 204, 2-(3-cyano-1-cyclopentyl-6-methyl-1H-indol-2-yl)-N-[(1S)-1-cyclopropylethyl]pyrimidine-5-sulfonamide] | < 500 | 180 to 182 °C
CC(C)n1c(-c2ccc(S(=O)(=O)NC(CF)CF)cn2)c(C#N)c2ccc(F)cc21 [compound 61, 6-[3-cyano-6-fluoro-1-(propan-2-yl)-1H-indol-2-yl]-N-(1,3-difluoropropan-2-yl)pyridine-3-sulfonamide] | < 500 | 155 to 156 °C
CC(C)(C)S(=O)(=O)Nc1ccc(-c2c(C(N)=O)c3c(F)cc(C4CC4)cc3n2C2CCCCC2)nc1 [compound 1097, 2-{5-[(tert-butylsulfonyl)amino]pyridin-2-yl}-1-cyclohexyl-6-cyclopropyl-4-fluoro-1H-indole-3-carboxamide] | < 500 | 275 to 285 °C (dec.)
Cc1cc2c(cc1F)c(C#N)c(-c1ccc(S(=O)(=O)N[C@@H](C)C(F)(F)F)cn1)n2-c1nccs1 [compound 934, 6-[3-cyano-5-fluoro-6-methyl-1-(1,3-thiazol-2-yl)-1H-indol-2-yl]-N-[(2S)-1,1,1-trifluoropropan-2-yl]pyridine-3-sulfonamide] | < 500 | 203 to 208 °C
N#Cc1c(-c2ncc(S(=O)(=O)NC(CF)CF)cn2)n(CC2CC2)c2cc(OC(F)F)ccc12 [compound 136, 2-[3-cyano-1-(cyclopropylmethyl)-6-(difluoromethoxy)-1H-indol-2-yl]-N-(1,3-difluoropropan-2-yl)pyrimidine-5-sulfonamide] | < 500 | 207 to 209 °C
CC(C)NS(=O)(=O)c1cnc(-c2c(C#N)c3ccc(F)cc3n2C(C)C)nc1 [compound 140, 2-[3-cyano-6-fluoro-1-(propan-2-yl)-1H-indol-2-yl]-N-(propan-2-yl)pyrimidine-5-sulfonamide] | 500 to 2000 | 158 to 160 °C
Cc1cc2c(cc1Cl)c(C#N)c(-c1ncc(S(=O)(=O)NC(CF)CF)cn1)n2C1CCC1 [compound 447, 2-(5-chloro-3-cyano-1-cyclobutyl-6-methyl-1H-indol-2-yl)-N-(1,3-difluoropropan-2-yl)pyrimidine-5-sulfonamide] | < 500 | 275 to 279 °C
Cc1cc2c(cc1F)c(C#N)c(-c1ccc(S(=O)(=O)N[C@@H](C)C(F)(F)F)cn1)n2-c1c[nH]nc1C [compound 1030, 6-[3-cyano-5-fluoro-6-methyl-1-(3-methyl-1H-pyrazol-4-yl)-1H-indol-2-yl]-N-[(2S)-1,1,1-trifluoropropan-2-yl]pyridine-3-sulfonamide] | 500 to 2000 | 238.8 to 244 °C
Cc1cc2c(C#N)c(-c3ccc(S(=O)(=O)N[C@@H](C)C(F)(F)F)cn3)n(-c3ncccn3)c2cc1F [compound 901, 6-[3-cyano-6-fluoro-5-methyl-1-(pyrimidin-2-yl)-1H-indol-2-yl]-N-[(2S)-1,1,1-trifluoropropan-2-yl]pyridine-3-sulfonamide] | < 500 | 125 to 130 °C
Cc1cc2c(cc1O)c(C#N)c(-c1ccc(S(=O)(=O)N[C@@H](C)C(F)(F)F)cn1)n2C1CCC1 [compound 796, 6-(3-cyano-1-cyclobutyl-5-hydroxy-6-methyl-1H-indol-2-yl)-N-[(2S)-1,1,1-trifluoropropan-2-yl]pyridine-3-sulfonamide] | < 500 | 193 to 195 °C
[2H]C([2H])([2H])c1cc2c(cc1F)c(C#N)c(-c1ccc(S(=O)(=O)N[C@@]([2H])(C)C(F)(F)F)cn1)n2C1CCC1 [compound 1114, 6-[3-cyano-1-cyclobutyl-5-fluoro-6-(1,1,1-trideuterium)methyl-1H-indol-2-yl]-N-[(2S)-1,1,1-trifluoro(2-deuterium)propan-2-yl]pyridine-3-sulfonamide] | < 500 | 213 to 215 °C
